Test results taken from ChEMBL document CHEMBL3885861, “Open TG-GATES”.

Species: Rattus norvegicus
Experiment: Open TG-GATES - Regimen: Single
Format: toxicity, organism-based, Sprague-Dawley
Parameters: regimen Single, gender Male, age 6 weeks
Conditions: in vivo, ip, route intraperitoneal injection; for APTT / Bas / Eos / Fbg / Hb / Ht / Lym / MCH / MCHC / MCV / Mono / Neu / PT / Plat / RBC / Ret / WBC: tissue Blood; for KIDNEY_L / KIDNEY_R / KIDNEY_TOTAL: tissue Kidney; for LIVER: tissue Liver; for A/G / ALP / ALT / AST / BUN / CRE / Ca / Cl / DBIL / GLC / IP / K / LDH / Na / PL / RALB / TBIL / TC / TG / TP / gamma-GTP: tissue Plasma
[1] = 0 mg/kg, 3 h, dose level Control
[2] = 0 mg/kg, 6 h, dose level Control
[3] = 0 mg/kg, 9 h, dose level Control
[4] = 0 mg/kg, 24 h, dose level Control
[5] = 150 mg/kg, 24 h, dose level Low

## CCCCS(=N)(=O)CCC(N)C(=O)O (centres undefined) [BUTHIONINE SULFOXIMINE]
[1]
  TERMINAL_BW: 217.4 g
  APTT: 16.3 s
  Bas: 0%
  Eos: 0.6%
  Fbg: 214.6 mg/dL
  Hb: 13.1 g/dL
  Ht: 39.2%
  Lym: 66.4%
  MCH: 21.9 pg
  MCHC: 33.4%
  MCV: 65.6 fL
  Mono: 10%
  Neu: 23.4%
  PT: 11.9 s
  Plat: 108.9 x10_4/uL
  RBC: 598.2 x10_4/ul
  Ret: 8.3%
  WBC: 104.5 x10_2/uL
  KIDNEY_L: 1 g
  KIDNEY_R: 1 g
  KIDNEY_TOTAL: 2 g
  LIVER: 10.4 g
  A/G: 2.3
  ALP: 962.6 IU/L
  ALT: 44 IU/L
  AST: 81 IU/L
  BUN: 12.8 mg/dL
  CRE: 0.5 mg/dL
  Ca: 10.9 mg/dL
  Cl: 104.4 meq/L
  DBIL: 0.086 mg/dL
  GLC: 190 mg/dL
  IP: 10.5 mg/dL
  K: 4.6 meq/L
  LDH: 100.4 IU/L
  Na: 140.6 meq/L
  PL: 139.6 mg/dL
  RALB: 3.7 g/dL
  TBIL: 0.4 mg/dL
  TC: 76 mg/dL
  TG: 63.8 mg/dL
  TP: 5.4 g/dL
  gamma-GTP: 1.2 IU/L
[2]
  TERMINAL_BW: 211.9 g
  APTT: 16.7 s
  Bas: 0%
  Eos: 0.8%
  Fbg: 221 mg/dL
  Hb: 13.3 g/dL
  Ht: 39.9%
  Lym: 68.2%
  MCH: 21.9 pg
  MCHC: 33.3%
  MCV: 65.9 fL
  Mono: 5%
  Neu: 26%
  PT: 10.8 s
  Plat: 112.3 x10_4/uL
  RBC: 605.2 x10_4/ul
  Ret: 9.1%
  WBC: 106.4 x10_2/uL
  KIDNEY_L: 1 g
  KIDNEY_R: 1 g
  KIDNEY_TOTAL: 1.9 g
  LIVER: 9.5 g
  A/G: 2
  ALP: 754.6 IU/L
  ALT: 38.2 IU/L
  AST: 68 IU/L
  BUN: 11.4 mg/dL
  CRE: 0.7 mg/dL
  Ca: 10.9 mg/dL
  Cl: 105.6 meq/L
  DBIL: 0.014 mg/dL
  GLC: 197.6 mg/dL
  IP: 9.8 mg/dL
  K: 4.9 meq/L
  LDH: 58.2 IU/L
  Na: 140.2 meq/L
  PL: 139.4 mg/dL
  RALB: 3.5 g/dL
  TBIL: 0.4 mg/dL
  TC: 78.2 mg/dL
  TG: 62.8 mg/dL
  TP: 5.3 g/dL
  gamma-GTP: 1.6 IU/L
[3]
  TERMINAL_BW: 214.6 g
  APTT: 17.1 s
  Bas: 0%
  Eos: 1%
  Fbg: 231 mg/dL
  Hb: 13.4 g/dL
  Ht: 40.5%
  Lym: 74.8%
  MCH: 21.5 pg
  MCHC: 33%
  MCV: 65.1 fL
  Mono: 5.6%
  Neu: 19%
  PT: 11 s
  Plat: 114 x10_4/uL
  RBC: 622.2 x10_4/ul
  Ret: 9.5%
  WBC: 101.1 x10_2/uL
  KIDNEY_L: 1 g
  KIDNEY_R: 1 g
  KIDNEY_TOTAL: 1.9 g
  LIVER: 8.9 g
  A/G: 2.1
  ALP: 838 IU/L
  ALT: 34.4 IU/L
  AST: 65.8 IU/L
  BUN: 12.8 mg/dL
  CRE: 0.5 mg/dL
  Ca: 11 mg/dL
  Cl: 106 meq/L
  DBIL: 0.006 mg/dL
  GLC: 203.4 mg/dL
  IP: 10.3 mg/dL
  K: 4.9 meq/L
  LDH: 60.8 IU/L
  Na: 139.2 meq/L
  PL: 146.6 mg/dL
  RALB: 3.8 g/dL
  TBIL: 0.3 mg/dL
  TC: 85 mg/dL
  TG: 57 mg/dL
  TP: 5.6 g/dL
  gamma-GTP: 1.2 IU/L
[4]
  TERMINAL_BW: 226.3 g
  APTT: 17.2 s
  Bas: 0%
  Eos: 1%
  Fbg: 231.6 mg/dL
  Hb: 13.6 g/dL
  Ht: 41%
  Lym: 75.4%
  MCH: 21.3 pg
  MCHC: 33.1%
  MCV: 64.5 fL
  Mono: 8.4%
  Neu: 15.2%
  PT: 11.4 s
  Plat: 115.5 x10_4/uL
  RBC: 636.4 x10_4/ul
  Ret: 8.8%
  WBC: 88.5 x10_2/uL
  KIDNEY_L: 1 g
  KIDNEY_R: 1 g
  KIDNEY_TOTAL: 2 g
  LIVER: 11 g
  A/G: 1.8
  ALP: 826.4 IU/L
  ALT: 37.8 IU/L
  AST: 63.2 IU/L
  BUN: 17.8 mg/dL
  CRE: 0.5 mg/dL
  Ca: 11.2 mg/dL
  Cl: 103.6 meq/L
  DBIL: 0.008 mg/dL
  GLC: 210.6 mg/dL
  IP: 9 mg/dL
  K: 4.8 meq/L
  LDH: 89.2 IU/L
  Na: 139.6 meq/L
  PL: 163.4 mg/dL
  RALB: 3.7 g/dL
  TBIL: 0.3 mg/dL
  TC: 83.2 mg/dL
  TG: 109.2 mg/dL
  TP: 5.8 g/dL
  gamma-GTP: 1.6 IU/L
150 mg/kg, 3 h, dose level Low
  TERMINAL_BW: 216.6 g
  APTT: 16.5 s
  Bas: 0%
  Eos: 0.8%
  Fbg: 216.4 mg/dL
  Hb: 13 g/dL
  Ht: 40%
  Lym: 74.8%
  MCH: 21.5 pg
  MCHC: 32.6%
  MCV: 66 fL
  Mono: 6%
  Neu: 18.6%
  PT: 12.1 s
  Plat: 112.9 x10_4/uL
  RBC: 606.2 x10_4/ul
  Ret: 9.2%
  WBC: 102.3 x10_2/uL
  KIDNEY_L: 0.9 g
  KIDNEY_R: 1 g
  KIDNEY_TOTAL: 1.9 g
  LIVER: 10.3 g
  A/G: 2.3
  ALP: 957.2 IU/L
  ALT: 38.8 IU/L
  AST: 70.8 IU/L
  BUN: 13.6 mg/dL
  CRE: 0.5 mg/dL
  Ca: 10.9 mg/dL
  Cl: 104.8 meq/L
  DBIL: 0.08 mg/dL
  GLC: 193 mg/dL
  IP: 9.3 mg/dL
  K: 4.7 meq/L
  LDH: 91.8 IU/L
  Na: 139.8 meq/L
  PL: 133.8 mg/dL
  RALB: 3.8 g/dL
  TBIL: 0.3 mg/dL
  TC: 73.4 mg/dL
  TG: 58.4 mg/dL
  TP: 5.4 g/dL
  gamma-GTP: 1.2 IU/L
150 mg/kg, 6 h, dose level Low
  TERMINAL_BW: 216 g
  APTT: 16.4 s
  Bas: 0%
  Eos: 0.6%
  Fbg: 217.8 mg/dL
  Hb: 13.3 g/dL
  Ht: 39.8%
  Lym: 70%
  MCH: 22.2 pg
  MCHC: 33.6%
  MCV: 66.2 fL
  Mono: 8.6%
  Neu: 20.8%
  PT: 11.2 s
  Plat: 109.8 x10_4/uL
  RBC: 600.6 x10_4/ul
  Ret: 9.3%
  WBC: 102.1 x10_2/uL
  KIDNEY_L: 1 g
  KIDNEY_R: 1 g
  KIDNEY_TOTAL: 2 g
  LIVER: 9.7 g
  A/G: 1.8
  ALP: 849.4 IU/L
  ALT: 32.8 IU/L
  AST: 72 IU/L
  BUN: 13 mg/dL
  CRE: 0.6 mg/dL
  Ca: 10.8 mg/dL
  Cl: 105.6 meq/L
  DBIL: 0 mg/dL
  GLC: 191 mg/dL
  IP: 9.5 mg/dL
  K: 4.6 meq/L
  LDH: 73.2 IU/L
  Na: 140.2 meq/L
  PL: 131.4 mg/dL
  RALB: 3.4 g/dL
  TBIL: 0.4 mg/dL
  TC: 71.8 mg/dL
  TG: 63.4 mg/dL
  TP: 5.2 g/dL
  gamma-GTP: 1.4 IU/L
150 mg/kg, 9 h, dose level Low
  TERMINAL_BW: 212.7 g
  APTT: 16.6 s
  Bas: 0%
  Eos: 1.2%
  Fbg: 232.6 mg/dL
  Hb: 13 g/dL
  Ht: 38.7%
  Lym: 59.6%
  MCH: 22.1 pg
  MCHC: 33.7%
  MCV: 65.6 fL
  Mono: 4.2%
  Neu: 35.2%
  PT: 11.2 s
  Plat: 112.1 x10_4/uL
  RBC: 589.8 x10_4/ul
  Ret: 10.3%
  WBC: 124.2 x10_2/uL
  KIDNEY_L: 1 g
  KIDNEY_R: 1 g
  KIDNEY_TOTAL: 2 g
  LIVER: 8.7 g
  A/G: 1.9
  ALP: 803.6 IU/L
  ALT: 33.6 IU/L
  AST: 69 IU/L
  BUN: 10.4 mg/dL
  CRE: 0.5 mg/dL
  Ca: 10.9 mg/dL
  Cl: 105.8 meq/L
  DBIL: 0.024 mg/dL
  GLC: 196.8 mg/dL
  IP: 9.7 mg/dL
  K: 4.9 meq/L
  LDH: 94 IU/L
  Na: 139 meq/L
  PL: 143.4 mg/dL
  RALB: 3.5 g/dL
  TBIL: 0.4 mg/dL
  TC: 89.6 mg/dL
  TG: 33.8 mg/dL
  TP: 5.4 g/dL
  gamma-GTP: 1.8 IU/L
[5]
  TERMINAL_BW: 227.8 g
  APTT: 16.9 s
  Bas: 0%
  Eos: 1.4%
  Fbg: 242.2 mg/dL
  Hb: 13.1 g/dL
  Ht: 39.2%
  Lym: 77.8%
  MCH: 21.8 pg
  MCHC: 33.5%
  MCV: 65.1 fL
  Mono: 6%
  Neu: 14.6%
  PT: 11.5 s
  Plat: 125.6 x10_4/uL
  RBC: 602.2 x10_4/ul
  Ret: 9.2%
  WBC: 76.2 x10_2/uL
  KIDNEY_L: 1 g
  KIDNEY_R: 1 g
  KIDNEY_TOTAL: 1.9 g
  LIVER: 11.2 g
  A/G: 1.8
  ALP: 977.2 IU/L
  ALT: 31.4 IU/L
  AST: 61.4 IU/L
  BUN: 19.4 mg/dL
  CRE: 0.5 mg/dL
  Ca: 11.3 mg/dL
  Cl: 104 meq/L
  DBIL: 0.01 mg/dL
  GLC: 209 mg/dL
  IP: 8.4 mg/dL
  K: 4.5 meq/L
  LDH: 86 IU/L
  Na: 139.8 meq/L
  PL: 156.6 mg/dL
  RALB: 3.7 g/dL
  TBIL: 0.3 mg/dL
  TC: 88.2 mg/dL
  TG: 101 mg/dL
  TP: 5.9 g/dL
  gamma-GTP: 1 IU/L
